Source: US20090143285A1, “TARGET PROTEIN AND TARGET GENE FOR DRUG DISCOVERY AND SCREENING METHOD” (REVERSE PROTEOMICS RESEARCH INSTITUTE CO., LTD., priority 2005, published 2009)

What was measured:
[1] = target: T1, FLJ38531-derived protein (Homo sapiens, UniProt Q9BVM4); test: SEC/MS interaction analysis, FLJ38531-derived protein (hypothetical protein BC004360); type: binding
T1 construct: His-tag (N); made in house; host or cells: Escherichia coli BL21star(DE3)pLysS
T1 sequence (Q9BVM4 1-153): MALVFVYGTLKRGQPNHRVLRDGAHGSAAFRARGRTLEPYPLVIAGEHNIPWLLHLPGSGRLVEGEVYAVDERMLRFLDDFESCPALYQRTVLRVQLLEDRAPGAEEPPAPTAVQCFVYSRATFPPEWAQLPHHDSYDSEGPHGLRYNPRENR
Text: To analyze the interactions between commonly used drugs and proteins expressed from human full-length cDNA clones while keeping both the proteins and the compounds in non-modified, non-immobilized state, size exclusion chromatography (SEC) and mass analysis were used in combination. The specific procedures are shown below.
The compound-protein mixture prepared in step 1 was subjected to chromatography using an SEC column, the compound and the protein were separated by SEC, and the compound that interacted with the bound compound or protein contained in the protein fraction was analyzed using a mass analyzer.
Protein concentrations were measured using BCA Protein Assay (PIERCE), in consideration of the purity calculated by SDS-PAGE.
Mass analysis was performed using LCQ DECA XP (Thermoelectron) or Q-TOF micro (Micromass), equipped with an ESI probe. The LC pump used was Agilent 1100 (Yokogawa Analytical Systems), and the autosampler used was HTC-PAL (CTC Analytics) equipped with a cooling stacker. The SEC column used was a micro-LC column or a 384-well spin column. […]
In the 384-well spin column method, Unifilter 100 (Whatman), packed with 10 μL (dry volume) of Bio-Gel P6 (BIO-RAD) and swollen with milliQ water, was used as the SEC column. […] The SEC spin column was mounted on an acetonitrile-aliquoted 384-well U-bottom plate and centrifuged; the SEC spin column filtrate, which is a protein fraction, was recovered in 50% acetonitrile. The protein precipitate produced by the acetonitrile was removed via centrifugation and filtration for deproteinization; the resulting filtrate was concentrated by centrifugal concentration and re-dissolved in 10 μL of 50% methanol to obtain a mass analysis sample. The mobile phase supplied to the mass analyzer was 0.1% formic acid/50% methanol solution in the positive ion mode, and 0.1% ammonia/50% methanol solution in the negative ion mode; these mobile phases were used at a flow rate of 40 μL/min. 2-μL of mass analysis samples were injected using an autosampler at 2-minute intervals; the mass spectral intensity of the compound was measured to retrieve the spectral intensity of the pharmaceutical compound contained in the SEC spin column filtrate (protein fraction eluted from SEC).

[2] = system: FLJXXXXX-derived proteins; test: SEC/MS spin column interaction analysis of FLJXXXXX-derived proteins and various compounds (Tables 30-1 to 30-4); type: binding, human; settings: SEC spin column filtrate, spectral intensity increased with doses of compound and protein
[3] = target: T1, FLJ38531-derived protein; test: Biacore dissociation constant (KD) measurement, FLJ38531-derived protein; type: binding; settings: FLJ38531-derived protein (SEQ ID NO 13)
Text: This washing operation was repeated as required.

O=C(O)c1cc(/N=N/c2ccc(S(=O)(=O)Nc3ccccn3)cc2)ccc1O [sulfasalazine]
spectrum intensity of the compound in the SEC spin column filtrate ([1]; compound 12.5 μM, protein 0 μM): 59203
spectrum intensity of the compound in the SEC spin column filtrate ([1]; compound 12.5 μM, protein 5 μM): 261679
spectrum intensity of the compound in the SEC spin column filtrate ([1]; compound 12.5 μM, protein 10 μM): 686531
spectrum intensity of the compound in the SEC spin column filtrate ([1]; compound 12.5 μM, protein 25 μM): 2048630
spectrum intensity of the compound in the SEC spin column filtrate ([1]; compound 25 μM, protein 0 μM): 53384
spectrum intensity of the compound in the SEC spin column filtrate ([1]; compound 25 μM, protein 5 μM): 401351
spectrum intensity of the compound in the SEC spin column filtrate ([1]; compound 25 μM, protein 10 μM): 946518
spectrum intensity of the compound in the SEC spin column filtrate ([1]; compound 25 μM, protein 25 μM): 2600573
spectrum intensity of the compound in the SEC spin column filtrate ([1]; compound 62.5 μM, protein 0 μM): 179387
spectrum intensity of the compound in the SEC spin column filtrate ([1]; compound 62.5 μM, protein 5 μM): 688076
spectrum intensity of the compound in the SEC spin column filtrate ([1]; compound 62.5 μM, protein 10 μM): 1418687
spectrum intensity of the compound in the SEC spin column filtrate ([1]; compound 62.5 μM, protein 25 μM): 3155516
interaction judged from spectrum intensity of the compound in the SEC spin column filtrate (protein fraction eluted from SEC) ([1]; spin column method, doses of both compound and protein varied): concentration-dependent interaction
FLJ No of the derived protein with which the compound was judged to exhibit a concentration-dependent interaction [2]: FLJ38531
Kd [3]: 8.9 µM
